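Interpolation was linear, between the two tested concentrations surrounding the appropriate level; five concentrations were tested over 48 hours in 96-well plates. Here, GI50 denotes the concentration required for 50% inhibition of growth. The concentration for full growth arrest is given as TGI.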
Columns and labels:
Assay in all cases: growth of human tumour cells (NCI), 48 h
786-0 renal = test system: 786-0 renal
A498 renal = test system: A498 renal
A549 NSCLC = test system: A549 NSCLC
ACHN renal = test system: ACHN renal
BT-549 breast = test system: BT-549 breast
CAKI-1 renal = test system: CAKI-1 renal
CCRF-CEM leukemia = test system: CCRF-CEM leukemia
COLO 205 colon = test system: COLO 205 colon
DU-145 prostate = test system: DU-145 prostate
EKVX NSCLC = test system: EKVX NSCLC
HCC-2998 colon = test system: HCC-2998 colon
HCT-116 colon = test system: HCT-116 colon
HCT-15 colon = test system: HCT-15 colon
HL-60(TB) leukemia = test system: HL-60(TB) leukemia
HOP-62 NSCLC = test system: HOP-62 NSCLC
HOP-92 NSCLC = test system: HOP-92 NSCLC
HS 578T breast = test system: HS 578T breast
HT29 colon = test system: HT29 colon
IGROV1 ovarian = test system: IGROV1 ovarian
K-562 leukemia = test system: K-562 leukemia
KM12 colon = test system: KM12 colon
LOX IMVI melanoma = test system: LOX IMVI melanoma
M14 melanoma = test system: M14 melanoma
MALME-3M melanoma = test system: MALME-3M melanoma
MCF7 breast = test system: MCF7 breast
MDA-MB-231 breast = test system: MDA-MB-231 breast
MDA-MB-435 = test system: MDA-MB-435
MDA-MB-468 breast = test system: MDA-MB-468 breast
MOLT-4 leukemia = test system: MOLT-4 leukemia
NCI-H226 lung = test system: NCI-H226 lung
NCI-H23 lung = test system: NCI-H23 lung
NCI-H460 lung = test system: NCI-H460 lung
NCI-H522 lung = test system: NCI-H522 lung
NCI/ADR-RES ovarian = test system: NCI/ADR-RES ovarian
OVCAR-3 ovarian = test system: OVCAR-3 ovarian
OVCAR-4 ovarian = test system: OVCAR-4 ovarian
OVCAR-5 ovarian = test system: OVCAR-5 ovarian
OVCAR-8 ovarian = test system: OVCAR-8 ovarian
PC-3 prostate = test system: PC-3 prostate
RPMI-8226 leukemia = test system: RPMI-8226 leukemia
RXF 393 renal = test system: RXF 393 renal
SF-268 CNS = test system: SF-268 CNS
SF-295 CNS = test system: SF-295 CNS
SF-539 CNS = test system: SF-539 CNS
SK-MEL-2 melanoma = test system: SK-MEL-2 melanoma
SK-MEL-28 melanoma = test system: SK-MEL-28 melanoma
SK-MEL-5 melanoma = test system: SK-MEL-5 melanoma
SK-OV-3 ovarian = test system: SK-OV-3 ovarian
SN12C renal = test system: SN12C renal
SNB-19 CNS = test system: SNB-19 CNS
SNB-75 CNS = test system: SNB-75 CNS
SR leukemia = test system: SR leukemia
SW-620 colon = test system: SW-620 colon
T-47D breast = test system: T-47D breast
TK-10 renal = test system: TK-10 renal
U251 CNS = test system: U251 CNS
UACC-257 melanoma = test system: UACC-257 melanoma
UACC-62 melanoma = test system: UACC-62 melanoma
UO-31 renal = test system: UO-31 renal

For `Cc1ccc(C(=O)C[n+]2cccc3c4ccccc4ccc32)cc1`, the GI50 (786-0 renal) was 18.6 µM, the TGI (786-0 renal) was 48.3 µM and the GI50 (A498 renal) was 24.1 µM. It also gave a TGI (A498 renal) of over 100 µM, a GI50 (A549 NSCLC) of 11 µM and a TGI (A549 NSCLC) of over 100 µM. It also gave a GI50 (ACHN renal) of 15.9 µM, a TGI (ACHN renal) of over 100 µM and a GI50 (BT-549 breast) of 5.68 µM. It also gave a TGI (BT-549 breast) of 18.9 µM, a GI50 (CAKI-1 renal) of 15.6 µM and a TGI (CAKI-1 renal) of 71.1 µM. It also gave a GI50 (CCRF-CEM leukemia) of 13.1 µM, a TGI (CCRF-CEM leukemia) of 70 µM and a GI50 (COLO 205 colon) of 9.03 µM. For the same compound, the TGI (COLO 205 colon) was 25.5 µM, the GI50 (DU-145 prostate) was 18.5 µM and the TGI (DU-145 prostate) was over 100 µM. For the same compound, the GI50 (EKVX NSCLC) was 7.26 µM, the TGI (EKVX NSCLC) was over 100 µM and the GI50 (HCC-2998 colon) was 13.6 µM. It also gave a TGI (HCC-2998 colon) of 28.3 µM, a GI50 (HCT-116 colon) of 6.64 µM and a TGI (HCT-116 colon) of 28.6 µM. For the same compound, the GI50 (HCT-15 colon) was 28.1 µM, the TGI (HCT-15 colon) was over 100 µM and the GI50 (HL-60(TB) leukemia) was 3.75 µM. For the same compound, the TGI (HL-60(TB) leukemia) was 21.1 µM, the GI50 (HOP-62 NSCLC) was 11.8 µM and the TGI (HOP-62 NSCLC) was over 100 µM. It also gave a GI50 (HOP-92 NSCLC) of 6.11 µM, a TGI (HOP-92 NSCLC) of 40.8 µM and a GI50 (HS 578T breast) of 15.8 µM. For the same compound, the TGI (HS 578T breast) was 83.4 µM, the GI50 (HT29 colon) was 5.6 µM and the TGI (HT29 colon) was 48.4 µM. It also gave a GI50 (IGROV1 ovarian) of 19.1 µM, a TGI (IGROV1 ovarian) of 82.5 µM and a GI50 (K-562 leukemia) of 2.45 µM. The TGI (K-562 leukemia) was over 100 µM, the GI50 (KM12 colon) was 16 µM and the TGI (KM12 colon) was 65 µM. The GI50 (LOX IMVI melanoma) was 11.2 µM, the TGI (LOX IMVI melanoma) was 24.1 µM and the GI50 (M14 melanoma) was 11.1 µM. The TGI (M14 melanoma) was 29.2 µM, the GI50 (MALME-3M melanoma) was 13.9 µM and the TGI (MALME-3M melanoma) was 27.4 µM. For the same compound, the GI50 (MCF7 breast) was 5.44 µM, the TGI (MCF7 breast) was 24.4 µM and the GI50 (MDA-MB-231 breast) was 14.4 µM. For the same compound, the TGI (MDA-MB-231 breast) was 40.8 µM, the GI50 (MDA-MB-435) was 14.2 µM and the TGI (MDA-MB-435) was 29.8 µM. For the same compound, the GI50 (MDA-MB-468 breast) was 1.61 µM, the TGI (MDA-MB-468 breast) was 7.72 µM and the GI50 (MOLT-4 leukemia) was 13.2 µM. The TGI (MOLT-4 leukemia) was 83.9 µM, the GI50 (NCI-H226 lung) was 5.18 µM and the TGI (NCI-H226 lung) was 42.9 µM. It also gave a GI50 (NCI-H23 lung) of 10.6 µM, a TGI (NCI-H23 lung) of 49 µM and a GI50 (NCI-H460 lung) of 10.5 µM. It also gave a TGI (NCI-H460 lung) of 25.8 µM, a GI50 (NCI-H522 lung) of 6.66 µM and a TGI (NCI-H522 lung) of 24.6 µM. For the same compound, the GI50 (NCI/ADR-RES ovarian) was over 100 µM, the TGI (NCI/ADR-RES ovarian) was over 100 µM and the GI50 (OVCAR-3 ovarian) was 6.1 µM. For the same compound, the TGI (OVCAR-3 ovarian) was 52.3 µM, the GI50 (OVCAR-4 ovarian) was 4.43 µM and the TGI (OVCAR-4 ovarian) was over 100 µM. It also gave a GI50 (OVCAR-5 ovarian) of 20.4 µM, a TGI (OVCAR-5 ovarian) of over 100 µM and a GI50 (OVCAR-8 ovarian) of 6.97 µM. The TGI (OVCAR-8 ovarian) was over 100 µM, the GI50 (PC-3 prostate) was 5.53 µM and the TGI (PC-3 prostate) was 59.4 µM. For the same compound, the GI50 (RPMI-8226 leukemia) was 3.87 µM, the TGI (RPMI-8226 leukemia) was 21.9 µM and the GI50 (RXF 393 renal) was 3.82 µM. For the same compound, the TGI (RXF 393 renal) was 21.6 µM, the GI50 (SF-268 CNS) was 17.2 µM and the TGI (SF-268 CNS) was over 100 µM. It also gave a GI50 (SF-295 CNS) of 7.05 µM, a TGI (SF-295 CNS) of 29.1 µM and a GI50 (SF-539 CNS) of 16.9 µM. It also gave a TGI (SF-539 CNS) of 58.7 µM, a GI50 (SK-MEL-2 melanoma) of 14.5 µM and a TGI (SK-MEL-2 melanoma) of 52.5 µM. The GI50 (SK-MEL-28 melanoma) was 14.8 µM, the TGI (SK-MEL-28 melanoma) was 32.6 µM and the GI50 (SK-MEL-5 melanoma) was 3.73 µM. It also gave a TGI (SK-MEL-5 melanoma) of 14.8 µM, a GI50 (SK-OV-3 ovarian) of 22.1 µM and a TGI (SK-OV-3 ovarian) of over 100 µM. It also gave a GI50 (SN12C renal) of 12.5 µM, a TGI (SN12C renal) of over 100 µM and a GI50 (SNB-19 CNS) of 18.5 µM. For the same compound, the TGI (SNB-19 CNS) was over 100 µM, the GI50 (SNB-75 CNS) was 8.73 µM and the TGI (SNB-75 CNS) was 61.9 µM. For the same compound, the GI50 (SR leukemia) was 29.7 µM, the TGI (SR leukemia) was over 100 µM and the GI50 (SW-620 colon) was 13.4 µM. The TGI (SW-620 colon) was 87.1 µM, the GI50 (T-47D breast) was 6.57 µM and the TGI (T-47D breast) was 46.2 µM. For the same compound, the GI50 (TK-10 renal) was 26.4 µM, the TGI (TK-10 renal) was over 100 µM and the GI50 (U251 CNS) was 9.32 µM. For the same compound, the TGI (U251 CNS) was 34.8 µM, the GI50 (UACC-257 melanoma) was 10.3 µM and the TGI (UACC-257 melanoma) was 25.7 µM. The GI50 (UACC-62 melanoma) was 12.6 µM, the TGI (UACC-62 melanoma) was 26.5 µM and the GI50 (UO-31 renal) was 19.9 µM. For the same compound, the TGI (UO-31 renal) was over 100 µM.

— PubChem BioAssay (NCI)
